Literature values in patent US20210379028A1, “TREATMENT OF DEPRESSIVE DISORDERS” (Ovid Therapeutics Inc., priority 2017, published 2021).

Columns and labels:
[1] = three-month efficacy study, treatment of insomnia
[2] = patients with a history of drug abuse who received gaboxadol
[3] = patients with severe major depressive disorder, combined with escitalopram

## Oc1noc2c1CCNC2 [gaboxadol, 4,5,6,7-tetrahydroisoxazolo [5,4-c] pyridine-3-ol]
[1]
  effects in sleep onset and sleep maintenance: failed to show significant effects
[2]
  psychiatric adverse events: steep increase
[3]
  benefit of combining gaboxadol with escitalopram over escitalopram alone: no additional benefit
